Tests used:
[1] = target: HUNK (Homo sapiens (Human), UniProt P57058); test: KINOMEscan scanMAX; format: binding; conditions: 2000 nM; read-out: Percent Control
[2] = target: EGFR(L747-T751del, Sins) (Homo sapiens (Human), UniProt P00533, DEL747-751/INS746S); test: KINOMEscan scanMAX; format: binding; conditions: 2000 nM; read-out: Percent Control
[3] = target: MYO3B (Homo sapiens (Human), UniProt Q8WXR4); test: DiscoverX Kd assay; conditions: average from duplicate measurements
[4] = target: EPHB6 (Homo sapiens (Human), UniProt O15197); test: KINOMEscan scanMAX; format: binding; conditions: 2000 nM; read-out: Percent Control
[5] = target: SRPK3 (Homo sapiens (Human), UniProt Q9UPE1); test: KINOMEscan scanMAX; format: binding; conditions: 2000 nM; read-out: Percent Control
Chain of SRPK3 (Q9UPE1 whole entry): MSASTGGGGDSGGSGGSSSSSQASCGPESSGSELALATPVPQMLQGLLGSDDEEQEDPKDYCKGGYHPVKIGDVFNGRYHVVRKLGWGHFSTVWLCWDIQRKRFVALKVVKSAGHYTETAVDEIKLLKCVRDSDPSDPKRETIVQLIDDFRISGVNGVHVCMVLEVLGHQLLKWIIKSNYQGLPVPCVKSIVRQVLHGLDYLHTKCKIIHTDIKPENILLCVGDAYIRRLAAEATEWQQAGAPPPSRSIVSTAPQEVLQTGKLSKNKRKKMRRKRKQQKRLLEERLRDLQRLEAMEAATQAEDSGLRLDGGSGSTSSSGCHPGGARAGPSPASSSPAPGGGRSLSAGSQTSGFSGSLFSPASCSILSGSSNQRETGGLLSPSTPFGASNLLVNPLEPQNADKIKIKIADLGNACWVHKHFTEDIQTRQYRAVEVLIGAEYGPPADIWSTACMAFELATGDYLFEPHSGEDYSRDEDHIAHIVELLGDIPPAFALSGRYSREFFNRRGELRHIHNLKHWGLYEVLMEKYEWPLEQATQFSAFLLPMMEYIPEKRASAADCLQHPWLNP

[6] = target: FES (Homo sapiens (Human), UniProt P07332); test: KINOMEscan scanMAX; format: binding; conditions: 2000 nM; read-out: Percent Control
[7] = target: KIT(L576P) (Homo sapiens (Human), UniProt P10721, L576P); test: KINOMEscan scanMAX; format: binding; conditions: 2000 nM; read-out: Percent Control
Chain of KIT(L576P) (P10721 26-976 L576P): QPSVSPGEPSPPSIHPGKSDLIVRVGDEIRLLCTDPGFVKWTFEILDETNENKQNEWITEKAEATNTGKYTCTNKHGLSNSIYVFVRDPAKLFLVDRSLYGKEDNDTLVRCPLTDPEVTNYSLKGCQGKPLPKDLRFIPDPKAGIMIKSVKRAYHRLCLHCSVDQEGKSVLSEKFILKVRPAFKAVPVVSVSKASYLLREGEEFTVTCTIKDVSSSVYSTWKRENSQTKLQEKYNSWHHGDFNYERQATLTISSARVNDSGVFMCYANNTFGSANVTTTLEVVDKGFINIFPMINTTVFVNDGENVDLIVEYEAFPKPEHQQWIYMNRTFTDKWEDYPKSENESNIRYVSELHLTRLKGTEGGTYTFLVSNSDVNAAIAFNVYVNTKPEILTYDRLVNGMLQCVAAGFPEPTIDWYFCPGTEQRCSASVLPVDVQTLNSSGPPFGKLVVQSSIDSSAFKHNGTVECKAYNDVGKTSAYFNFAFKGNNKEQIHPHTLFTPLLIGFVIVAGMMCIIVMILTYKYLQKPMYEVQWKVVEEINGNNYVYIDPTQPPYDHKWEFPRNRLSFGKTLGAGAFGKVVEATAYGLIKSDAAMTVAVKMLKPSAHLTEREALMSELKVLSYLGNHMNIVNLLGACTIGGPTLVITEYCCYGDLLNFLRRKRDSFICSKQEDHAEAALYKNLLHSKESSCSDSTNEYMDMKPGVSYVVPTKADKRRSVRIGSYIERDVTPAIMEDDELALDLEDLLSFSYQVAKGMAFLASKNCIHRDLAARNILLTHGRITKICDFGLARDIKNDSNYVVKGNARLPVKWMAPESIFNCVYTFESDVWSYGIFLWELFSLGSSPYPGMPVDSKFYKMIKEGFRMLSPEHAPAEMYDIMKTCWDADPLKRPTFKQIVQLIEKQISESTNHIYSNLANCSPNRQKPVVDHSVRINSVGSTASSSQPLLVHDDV

[8] = target: CSNK1D (Homo sapiens (Human), UniProt P48730); test: KINOMEscan scanMAX; format: binding; conditions: 2000 nM; read-out: Percent Control
[9] = target: MST1R (Homo sapiens (Human), UniProt Q04912); test: KINOMEscan scanMAX; format: binding; conditions: 2000 nM; read-out: Percent Control
[10] = target: TEC (Homo sapiens (Human), UniProt P42680); test: KINOMEscan scanMAX; format: binding; conditions: 2000 nM; read-out: Percent Control
Chain of TEC (P42680 whole entry): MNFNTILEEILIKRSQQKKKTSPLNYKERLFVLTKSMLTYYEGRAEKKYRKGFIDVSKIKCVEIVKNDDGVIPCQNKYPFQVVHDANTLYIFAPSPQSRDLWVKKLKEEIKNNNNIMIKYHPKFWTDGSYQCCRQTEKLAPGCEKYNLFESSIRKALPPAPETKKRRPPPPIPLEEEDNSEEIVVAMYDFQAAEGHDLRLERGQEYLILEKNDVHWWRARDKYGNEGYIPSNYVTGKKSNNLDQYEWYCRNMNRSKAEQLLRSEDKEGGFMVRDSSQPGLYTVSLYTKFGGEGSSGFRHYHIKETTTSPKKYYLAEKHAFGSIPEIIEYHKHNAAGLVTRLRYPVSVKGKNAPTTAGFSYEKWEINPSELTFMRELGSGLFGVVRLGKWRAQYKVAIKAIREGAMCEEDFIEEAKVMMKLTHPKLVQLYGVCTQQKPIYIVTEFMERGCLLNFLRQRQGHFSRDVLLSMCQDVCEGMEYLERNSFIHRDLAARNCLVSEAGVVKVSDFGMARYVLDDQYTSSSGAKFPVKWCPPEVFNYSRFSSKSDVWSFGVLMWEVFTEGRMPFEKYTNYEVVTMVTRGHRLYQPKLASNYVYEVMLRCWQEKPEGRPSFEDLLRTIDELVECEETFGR

[11] = target: PLK1 (Homo sapiens (Human), UniProt P53350); test: KINOMEscan scanMAX; format: binding; conditions: 2000 nM; read-out: Percent Control
[12] = target: FGFR2 (Homo sapiens (Human), UniProt P21802); test: KINOMEscan scanMAX; format: binding; conditions: 2000 nM; read-out: Percent Control
[13] = target: PRKD3 (Homo sapiens (Human), UniProt O94806); test: KINOMEscan scanMAX; format: binding; conditions: 2000 nM; read-out: Percent Control
[14] = target: CLK4 (Homo sapiens (Human), UniProt Q9HAZ1); test: KINOMEscan scanMAX; format: binding; conditions: 2000 nM; read-out: Percent Control
Chain of CLK4 (Q9HAZ1 whole entry): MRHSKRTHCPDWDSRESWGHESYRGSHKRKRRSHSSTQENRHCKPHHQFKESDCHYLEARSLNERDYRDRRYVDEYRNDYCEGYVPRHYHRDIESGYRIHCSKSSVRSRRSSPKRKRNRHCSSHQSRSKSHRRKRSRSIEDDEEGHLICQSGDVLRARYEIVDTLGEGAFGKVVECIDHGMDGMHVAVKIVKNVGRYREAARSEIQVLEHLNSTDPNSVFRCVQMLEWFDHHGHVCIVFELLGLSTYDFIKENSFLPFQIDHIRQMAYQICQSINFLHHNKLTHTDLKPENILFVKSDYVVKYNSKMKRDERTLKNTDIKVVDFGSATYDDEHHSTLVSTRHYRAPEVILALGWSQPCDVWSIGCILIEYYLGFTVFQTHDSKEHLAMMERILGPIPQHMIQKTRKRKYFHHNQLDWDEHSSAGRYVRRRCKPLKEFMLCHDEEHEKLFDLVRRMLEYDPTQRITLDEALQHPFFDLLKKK

[15] = target: PDPK1 (Homo sapiens (Human), UniProt O15530); test: KINOMEscan scanMAX; format: binding; conditions: 2000 nM; read-out: Percent Control
[16] = target: BRK (PTK6) (Homo sapiens (Human), UniProt Q13882); test: KINOMEscan scanMAX; format: binding; conditions: 2000 nM; read-out: Percent Control
[17] = target: SRPK1 (Homo sapiens (Human), UniProt Q96SB4); test: KINOMEscan scanMAX; format: binding; conditions: 2000 nM; read-out: Percent Control
[18] = target: CAMK1D (Homo sapiens (Human), UniProt Q8IU85); test: KINOMEscan scanMAX; format: binding; conditions: 2000 nM; read-out: Percent Control
[19] = target: EGFR(L747-S752del, P753S) (Homo sapiens (Human), UniProt P00533, DEL747-752/P753S); test: KINOMEscan scanMAX; format: binding; conditions: 2000 nM; read-out: Percent Control
[20] = Serum and tumor PK in mice bearing 22rv1 xenograft tumors; format: in vivo; conditions: i.p. 20 mg/kg, male NcrNU mice
Method: To evaluate the PK of Senexin C in tumor tissues, Senexin C dissolved in 5% Dextrose was administered i.p. to male NcrNU mice bearing 22rv1 xenograft tumors (300˜500 mm^3) at 20 mg/kg. Both blood and tumor samples were collected at three different time points (3 mice per time point) after administration and Senexin C concentration in the serum and tumor tissue was measured by LC/MS/MS.

[21] = target: STK39 (Homo sapiens (Human), UniProt Q9UEW8); test: KINOMEscan scanMAX; format: binding; conditions: 2000 nM; read-out: Percent Control
[22] = target: DYRK1A (Homo sapiens (Human), UniProt Q13627); test: KINOMEscan scanMAX; format: binding; conditions: 2000 nM; read-out: Percent Control
[23] = target: PFTK1 (CDK14) (Homo sapiens (Human), UniProt O94921); test: KINOMEscan scanMAX; format: binding; conditions: 2000 nM; read-out: Percent Control
[24] = target: PRKCI (Homo sapiens (Human), UniProt P41743); test: KINOMEscan scanMAX; format: binding; conditions: 2000 nM; read-out: Percent Control
[25] = target: RIPK4 (Homo sapiens (Human), UniProt P57078); test: KINOMEscan scanMAX; format: binding; conditions: 2000 nM; read-out: Percent Control
[26] = target: p38-delta (MAPK13) (Homo sapiens (Human), UniProt O15264); test: KINOMEscan scanMAX; format: binding; conditions: 2000 nM; read-out: Percent Control
Chain of p38-delta (MAPK13) (O15264 whole entry): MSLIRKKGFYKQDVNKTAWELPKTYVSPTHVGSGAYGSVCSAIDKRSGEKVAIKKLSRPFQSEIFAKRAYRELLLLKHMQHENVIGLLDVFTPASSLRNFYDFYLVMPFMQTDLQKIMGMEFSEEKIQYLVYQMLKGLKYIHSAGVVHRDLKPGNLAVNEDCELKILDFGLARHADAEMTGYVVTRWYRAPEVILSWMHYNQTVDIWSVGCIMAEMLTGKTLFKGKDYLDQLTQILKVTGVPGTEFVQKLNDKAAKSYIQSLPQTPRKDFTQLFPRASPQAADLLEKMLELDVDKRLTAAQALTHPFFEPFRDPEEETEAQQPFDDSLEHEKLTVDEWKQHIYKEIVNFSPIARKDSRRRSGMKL

[27] = target: RSK2(Kin.Dom.1-N-terminal) (RPS6KA3) (Homo sapiens (Human), UniProt P51812); test: KINOMEscan scanMAX; format: binding; conditions: 2000 nM; read-out: Percent Control
Chain of RSK2(Kin.Dom.1-N-terminal) (RPS6KA3) (P51812 68-327): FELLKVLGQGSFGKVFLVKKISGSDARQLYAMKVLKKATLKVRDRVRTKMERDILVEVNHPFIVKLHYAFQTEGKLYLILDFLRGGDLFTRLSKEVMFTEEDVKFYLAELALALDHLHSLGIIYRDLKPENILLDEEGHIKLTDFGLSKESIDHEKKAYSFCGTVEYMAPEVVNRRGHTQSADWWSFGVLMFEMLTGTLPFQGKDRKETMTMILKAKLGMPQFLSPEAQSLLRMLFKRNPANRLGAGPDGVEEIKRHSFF

[28] = target: GSK3A (Homo sapiens (Human), UniProt P49840); test: KINOMEscan scanMAX; format: binding; conditions: 2000 nM; read-out: Percent Control
[29] = target: FER (Homo sapiens (Human), UniProt P16591); test: KINOMEscan scanMAX; format: binding; conditions: 2000 nM; read-out: Percent Control
[30] = target: CAMK2G (Homo sapiens (Human), UniProt Q13555); test: KINOMEscan scanMAX; format: binding; conditions: 2000 nM; read-out: Percent Control
[31] = target: RIPK2 (Homo sapiens (Human), UniProt O43353); test: KINOMEscan scanMAX; format: binding; conditions: 2000 nM; read-out: Percent Control
Chain of RIPK2 (O43353 whole entry): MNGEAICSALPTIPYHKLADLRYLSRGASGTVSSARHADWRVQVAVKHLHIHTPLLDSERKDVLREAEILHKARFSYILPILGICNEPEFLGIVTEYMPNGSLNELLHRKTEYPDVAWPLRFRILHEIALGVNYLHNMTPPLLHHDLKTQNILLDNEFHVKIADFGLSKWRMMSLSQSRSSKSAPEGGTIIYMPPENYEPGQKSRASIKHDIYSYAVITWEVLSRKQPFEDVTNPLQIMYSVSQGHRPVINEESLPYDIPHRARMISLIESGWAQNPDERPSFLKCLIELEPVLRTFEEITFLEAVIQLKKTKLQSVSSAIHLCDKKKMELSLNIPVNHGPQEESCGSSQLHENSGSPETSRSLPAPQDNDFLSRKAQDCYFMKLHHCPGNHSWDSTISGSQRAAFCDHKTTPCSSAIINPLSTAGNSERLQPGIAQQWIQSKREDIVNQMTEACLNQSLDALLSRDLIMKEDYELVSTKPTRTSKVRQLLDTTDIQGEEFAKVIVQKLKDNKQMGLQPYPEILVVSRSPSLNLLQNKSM

[32] = target: HPK1 (MAP4K1) (Homo sapiens (Human), UniProt Q92918); test: KINOMEscan scanMAX; format: binding; conditions: 2000 nM; read-out: Percent Control
[33] = target: ASK1 (MAP3K5) (Homo sapiens (Human), UniProt Q99683); test: KINOMEscan scanMAX; format: binding; conditions: 2000 nM; read-out: Percent Control
[34] = target: TNIK (Homo sapiens (Human), UniProt Q9UKE5); test: KINOMEscan scanMAX; format: binding; conditions: 2000 nM; read-out: Percent Control
[35] = test system: FLT3(ITD); test: KINOMEscan scanMAX; format: binding, human; conditions: 2000 nM
[36] = target: CSNK1G1 (Homo sapiens (Human), UniProt Q9HCP0); test: KINOMEscan scanMAX; format: binding; conditions: 2000 nM; read-out: Percent Control
Chain of CSNK1G1 (Q9HCP0 whole entry): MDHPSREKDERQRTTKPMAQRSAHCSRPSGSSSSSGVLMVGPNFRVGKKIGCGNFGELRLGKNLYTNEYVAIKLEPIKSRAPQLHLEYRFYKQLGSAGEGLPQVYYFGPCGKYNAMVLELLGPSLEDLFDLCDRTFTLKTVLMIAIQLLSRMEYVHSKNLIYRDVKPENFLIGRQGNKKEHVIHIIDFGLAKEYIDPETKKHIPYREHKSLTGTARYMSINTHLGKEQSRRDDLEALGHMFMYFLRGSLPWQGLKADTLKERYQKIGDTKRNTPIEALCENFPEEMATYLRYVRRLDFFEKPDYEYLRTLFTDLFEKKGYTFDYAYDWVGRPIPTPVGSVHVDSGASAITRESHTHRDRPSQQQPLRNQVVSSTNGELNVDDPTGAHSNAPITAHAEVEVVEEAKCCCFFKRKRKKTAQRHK

[37] = target: ABL1(H396P)-nonphosphorylated (Homo sapiens (Human), UniProt P00519, H396P); test: KINOMEscan scanMAX; format: binding; conditions: 2000 nM; read-out: Percent Control

Chain of HUNK (P57058 whole entry): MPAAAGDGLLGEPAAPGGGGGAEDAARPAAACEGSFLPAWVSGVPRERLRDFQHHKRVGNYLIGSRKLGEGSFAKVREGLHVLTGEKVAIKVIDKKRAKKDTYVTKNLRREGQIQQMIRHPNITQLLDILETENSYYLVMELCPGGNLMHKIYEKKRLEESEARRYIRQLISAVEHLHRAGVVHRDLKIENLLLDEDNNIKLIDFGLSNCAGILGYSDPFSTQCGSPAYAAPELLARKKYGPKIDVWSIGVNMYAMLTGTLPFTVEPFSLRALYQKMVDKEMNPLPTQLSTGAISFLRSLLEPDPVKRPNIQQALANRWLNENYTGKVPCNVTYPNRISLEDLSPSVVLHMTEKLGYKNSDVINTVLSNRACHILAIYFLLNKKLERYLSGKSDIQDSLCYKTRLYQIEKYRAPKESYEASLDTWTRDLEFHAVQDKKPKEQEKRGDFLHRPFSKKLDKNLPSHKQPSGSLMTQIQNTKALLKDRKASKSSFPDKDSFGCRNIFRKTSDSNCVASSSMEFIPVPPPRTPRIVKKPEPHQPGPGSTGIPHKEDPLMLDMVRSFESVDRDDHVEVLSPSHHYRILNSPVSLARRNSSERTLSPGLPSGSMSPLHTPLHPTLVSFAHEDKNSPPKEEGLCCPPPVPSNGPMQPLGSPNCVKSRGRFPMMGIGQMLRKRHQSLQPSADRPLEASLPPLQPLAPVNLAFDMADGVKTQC

## CN1CCN(C(=O)c2ccc3cc(CCNc4ccnc5ccc(C#N)cc45)ccc3c2)CC1 [compound 6148, 4-((2-(6-(4-methylpiperazine-1-carbonyl)naphthalen-2-yl)ethyl)amino)quinoline-6-carbonitrile]
[1]
  remaining binding at 2 µM: 74%
[2]
  remaining binding at 2 µM: 74%
[3]
  Kd: > 30 µM
[4]
  remaining binding at 2 µM: 86%
[5]
  remaining binding at 2 µM: 96%
[6]
  remaining binding at 2 µM: 81%
[7]
  remaining binding at 2 µM: 100%
[8]
  remaining binding at 2 µM: 87%
[9]
  remaining binding at 2 µM: 100%
[10]
  remaining binding at 2 µM: 100%
[11]
  remaining binding at 2 µM: 63%
[12]
  remaining binding at 2 µM: 98%
[13]
  remaining binding at 2 µM: 100%
[14]
  remaining binding at 2 µM: 69%
[15]
  remaining binding at 2 µM: 86%
[16]
  remaining binding at 2 µM: 97%
[17]
  remaining binding at 2 µM: 91%
[18]
  remaining binding at 2 µM: 80%
[19]
  remaining binding at 2 µM: 98%
[20]
  Clearance from tumor tissue compared with blood: much slower clearance rate
[20]; mouse, tumor tissue (relative to serum), ip, read-out: Amount in tumor tissue relative to blood
  Kp: 5 to 10
[21]
  remaining binding at 2 µM: 44%
[22]
  remaining binding at 2 µM: 63%
[23]
  remaining binding at 2 µM: 98%
[24]
  remaining binding at 2 µM: 89%
[25]
  remaining binding at 2 µM: 57%
[26]
  remaining binding at 2 µM: 97%
[27]
  remaining binding at 2 µM: 62%
[28]
  remaining binding at 2 µM: 94%
[29]
  remaining binding at 2 µM: 91%
[30]
  remaining binding at 2 µM: 100%
[31]
  remaining binding at 2 µM: 100%
[32]
  remaining binding at 2 µM: 94%
[33]
  remaining binding at 2 µM: 91%
[34]
  remaining binding at 2 µM: 89%
[35]
  Percent Control: 97%
[36]
  remaining binding at 2 µM: 100%
[37]
  remaining binding at 2 µM: 73%

From patent US12281080B2, “Quinoline-based compounds and methods of inhibiting CDK8/19” (University of South Carolina, priority 2018, dated 2025)
